Results: paper PMC3375010, “The TRPV5/6 calcium channels contain multiple calmodulin binding sites with differential binding properties” (Journal of Structural and Functional Genomics, 2012)
Entries after “also recorded” stand apart in the source; their conditions may differ. Values belong to the substance of their own block, whether it stands above or below them.

Key:
CaM (calmodulin) [1] = target: T1, CaM (calmodulin) (Xenopus laevis, UniProt P0DP33); assay: 15N-1H-HSQC NMR titration of 15N-labelled CaM with peptide (with 1D 15N-filtered NMR); format: binding, Xenopus laevis (identical to mammalian); settings: 35°C; for CaM NMR line broadening: CaM:peptide 1:1.5 molar ratio, H2O with 10 mM 2-mercaptoethanol; for NMR exchange regime of CaM-peptide complex: 15N-1H-HSQC, V5p4, V5p5: CaM buffer pH 7.0, V5p2, V5p2n: H2O with 10 mM 2-mercaptoethanol; for CaM domains involved in binding (overall): V6p1: first and second event, pH 7.0, V5p3: 1:1, pH 5.0; for CaM binding affinity (words, from NMR): 1:0–1:3
T1 construct: made in house; host or cells: E. coli AR58 (pTNcoI2 plasmid)
Experimental: (§1) For the titration by synthetic peptides, ^15N-labeled CaM samples with concentration 0.3–0.7 mM were used. CaM and peptides were dissolved in either KCl 50 mM, CaCl2 10 mM, Tris 20 mM pH 7.0 (V5p1s, V6p1, V5p4, V5p5), or 10 mM CaCl2, 10 mM ammonium acetate buffer pH 5.0 (V5p3 and V6p3), or MilliQ water with 10 mM 2-mercaptoethanol (V5p2 and V5p2n).
(§2) The binding of target peptides to CaM was monitored by 2D ^15N-^1H-HSQC spectra. The combination of 1D ^15N-filtered and 1D ^15N-^1H-HSQC experiments was used to assess the ratio of bound and non-bound peptides. ^15N-T1rho experiments were used to estimate the transverse relaxation rates of the CaM resonances during the titration. For sequential assignment of CaM 3D HNCACB and CBCA(CO)NH experiments were performed.
All spectra were recorded at 308 K on Varian Inova 800 MHz or Bruker Avance III 600 MHz spectrometers, each equipped with a cryogenic probe.
All NMR spectra were processed using the NMRpipe suite and analyzed by the program CcpNmr Analysis.

CaM (calmodulin) [2] = target: T1, CaM (calmodulin); assay: Tryptophan fluorescence of the peptide upon titration by CaM; format: binding, Xenopus laevis (identical to mammalian); settings: room temperature; for emission maximum: V5p2, W593; for emission maximum without CaM (start of shift): V6p1 W695: CaM buffer pH 7.0, V5p2 W593: H2O with 2-mercaptoethanol pH 7.0 (Table 1), before CaM addition; for shift of emission maximum upon CaM addition: emission 295–405 nm, peptide:CaM 1:0–1:2
Experimental: Fluorescence measurements were performed using a Varian Cary Eclipse fluorescence spectrophotometer (Agilent Technologies, USA), with emission and excitation slit width set to 5 nm. Tryptophan excitation wavelength was set to 282 nm and emission spectra were recorded in the range 295–405 nm. Each spectrum was recorded three times and averaged. Fluorescence intensity contribution from CaM and background intensity from buffer and cuvettes were subtracted for each spectrum. The recorded emission intensities were corrected for dilution effects. All measurements were carried out at room temperature. CaM and peptides stocks were prepared in 50 mM KCl, 10 mM CaCl2 20 mM Tris pH 7.0 buffer. […] For each titration point, the samples were kept at room temperature for 30 min prior to measurements to ensure that the equilibrium was reached.

CaM (calmodulin) [3] = target: T1, CaM (calmodulin); assay: 15N-T1rho relaxation of CaM (oligomeric state); parameters: species or system Xenopus laevis (identical to mammalian); settings: CaM:V5p2 1:1.5 complex
Experimental: as §2
At CaM:V5p2 1:0.75 molar ratio, a significant number of the CaM peaks are doubled and for some peaks substantial line broadening is observed. […] Using the envelope of the well-dispersed, upfield-shifted amide resonances, we obtained T1rho values of ~100 ms for free Ca^2+/CaM which decreased to ~80 ms for CaM in the 1:1.5 complex.

[4] = Peptide solubility / aggregation; format: physicochemical; settings: for solubility: V5p2: at concentrations desired for NMR, V5p3, V6p3: 10 mM CaCl2, 10 mM ammonium acetate pH 5.0; for aggregation / precipitation: aqueous buffer versus water, 2-mercaptoethanol 10 mM tested
Experimental: as §1
^15N-^1H-HSQC spectra of the complexes of CaM with V5p2 at molar ratios 1:0 (black), 1:0.75 (red) and 1:1.5 (blue) are presented in Fig. 5a.
The binding patterns observed for CaM in the two complexes were also very similar (supplementary Fig. 4sC). Low pH (5.0) might influence CaM-peptide interactions but we have not studied the effect of pH in details. As both peptides contain neither tryptophan, nor tyrosine residues, fluorescence measurements were not possible using the native peptides.

CaM (calmodulin) [5] = target: T1, CaM (calmodulin); assay: Isothermal titration calorimetry of CaM with peptide; format: binding, Xenopus laevis (identical to mammalian); settings: for K2 (macroscopic binding constant, second event) / K1 (macroscopic binding constant, first event): CaM 15–20 μM in cell; for K1 (macroscopic binding constant, first event): measured at least three times; for ΔS1 / ΔS2: pH 7.0
Description: Peptides corresponding to the amino acid residues 133–154, 310–330, 401–428, 591–612, 696–712 and 696–729 of human TRPV5 and 401–428 and 690–716 of human TRPV6 (cf. Table 1) were purchased from Peptides & elephants GmbH (Potsdam, Germany) and GenicBio Limited (Shanghai, China). All peptides were purified by HPLC (>95% purity) and analyzed by mass-spectrometry. Prior to all experiments, to remove residual TFA, the peptides were dialyzed against an appropriate buffer (dialysis tubing Spectra/Por® 7 with 1 K MWCO; Spectrum Labs, USA).
Expression was induced by a temperature shift from 30 to 42°C and 3–4 h after induction cells were harvested and lysed. Calmodulin was purified by weak anion exchange (DEAE, GE Lifesciences) and affinity chromatography (Phenylsepharose, GE Lifesciences). Purified protein was dialyzed against 1/100 of KCl 50 mM, CaCl2 10 mM, Tris 20 mM pH 7.0, freeze-dried and stored at −20°C. Unless specified differently, all chemicals were obtained from Sigma-Aldrich, USA). Uniformly ^13C and/or ^15N-labelled samples were produced by growing the cells in M9 minimal medium containing 4 g/L ^13C6-glucose and/or 1 g/L ^15N-ammonium chloride (Buchem BV, Apeldoorn, The Netherlands) as the sole source of carbon and/or nitrogen, respectively.
ITC samples were prepared by dissolving CaM and peptides in 50 mM KCl, 10 mM CaCl2, 20 mM Tris pH 7.0 buffer. The concentration of CaM in the cell was 15–20 μM, the concentration of peptides in the syringe exceeded the CaM concentration by 15–20 times. Protein concentrations were determined using a Nanodrop spectrophotometer ND-1000 (Isogen Life Science). ITC experiments were carried out using an ITC200 device (MicroCal Inc., Northampton, MA, USA). After thermal equilibration at 298 K, thirty-nine 1 μl serial injections were performed at 500 rpm stirring speed with an injection spacing of 4 min. To correct the experimental binding isotherm for background heat effects, we also titrated peptide into buffer. All measurements were performed at least three times to determine the optimal experimental conditions with respect to signal-to-noise ratio. In all cases, experiments were consistent and reproducible. ITC data analysis was performed using the Origin 7.0 software supplied by the manufacturer of the ITC. All data were analyzed with “one binding site model” and the “sequential binding site model” implemented in this software package.

CaM-Sepharose = settings: ref S. Verkaart, private communication; cited from earlier work
Description: In our previous work we studied a long version of the C-terminal TRPV5 peptide 1 (V5p1, residues 696–729 in human TRPV5).

[6] = target: Calmodulin (Homo sapiens) (UniProt P0DP23); assay: fluorescence anisotropy; settings: cited from earlier work
[7] = 15N-1H-HSQC titration, CaM buffer pH 7.0
[8] = association constant, sequential binding sites model, N fixed to 2, 50 mM KCl, 10 mM CaCl2, 20 mM Tris pH 7.0, 298 K
[9] = sequential binding sites model, N fixed to 2, 298 K

Substance: ELWRAQVVATTVMLERKLPRCL [V5p2, C-terminal peptide 2, residues 591–612 of human TRPV5]
CaM NMR line broadening (CaM (calmodulin) [1]): many peaks are significantly broadened, some even beyond detection; also recorded: dramatic line broadening in the CaM NMR spectra
emission maximum (CaM (calmodulin) [2]; CaM:peptide 0.75:1 molar ratio): 337 nm
emission maximum (CaM (calmodulin) [2]; further addition of CaM (beyond 0.75:1)): 312 nm
emission maximum without CaM (start of shift) (CaM (calmodulin) [2]; excitation 282 nm): 350 nm
shift of emission maximum upon CaM addition (CaM (calmodulin) [2]; excitation 282 nm): blue-shift in emission maximum
oligomeric state of CaM in complex (CaM (calmodulin) [3]; from T1rho): (predominantly) monomeric state of CaM
15N-T1rho of CaM (CaM (calmodulin) [3]; upfield-shifted amide resonances, H2O with 10 mM 2-mercaptoethanol): ~ 80 ms
solubility [4]: only soluble in H2O; also recorded: limited solubility; also recorded: soluble in water
aggregation / precipitation [4]: in any buffer other than water precipitate was formed; also recorded: tends to aggregate in aqueous buffer solutions

Substance: GLEI PDIFRVGASRYFGKTILGGPFHVI [V5p3, TM23-loop peptide, residues 401–428 of TRPV5, L401G]
CaM domains involved in binding (overall) (CaM (calmodulin) [1]): Residues of both CaM domains were involved in the binding process
solubility [4]: only soluble at pH 5.0

Substance: GSHRGWEILRQNTLGHL [V5p1s, short TRPV5 C-terminal peptide 1, residues 696–712 of human TRPV5, S696G]
K2 (macroscopic binding constant, second event) (CaM (calmodulin) [5]; [8]): 2.9 (±1.9) × 10^4 M^−1
K1 (macroscopic binding constant, first event) (CaM (calmodulin) [5]; [8]): 9.2 (±4.1) × 10^6 M^−1
ΔS1 (CaM (calmodulin) [5]; [9]): −95.3 cal mol^−1 deg^−1
ΔS2 (CaM (calmodulin) [5]; [9]): −64.1 cal mol^−1 deg^−1
CaM residues/domain involved in first binding event (CaM (calmodulin) [1]; 1:1 CaM:peptide, CaM buffer pH 7.0): C-domain of CaM
CaM residues/domain involved in second binding event (CaM (calmodulin) [1]; 1:2 CaM:peptide, CaM buffer pH 7.0): N-domain of CaM
number of distinct binding events (CaM (calmodulin) [1]; 15N-1H-HSQC at CaM:peptide 1:0, 1:1, 1:2, CaM buffer pH 7.0): two binding events
emission maximum λmax (CaM (calmodulin) [2]; W701, peptide:CaM ratio 1:2, 50 mM KCl, 10 mM CaCl2, 20 mM Tris pH 7.0, excitation 282 nm): ~ 324 nm
shift of emission maximum upon CaM addition (CaM (calmodulin) [2]; excitation 282 nm): clear blue-shift of the emission maximum
effect of C-terminal deletion of 17 amino acids on TRPV5 binding to CaM-Sepharose (CaM-Sepharose): did not affect TRPV5 binding to CaM-Sepharose

Substance: GVEVPDIFRMGVTRFFGQTILGGPFHVL [V6p3, TM23-loop peptide, residues 401–428 of TRPV6, L401G]
solubility [4]: only soluble at pH 5.0

Substance: TRPV5 587-616 (from UniProt Q9NQA5)
Kd [6]: 310 nM

Further lines, with some results ahead:

CaM NMR line broadening (CaM (calmodulin) [1]): a significant loss of signal is observed
Substance: ELWRAQVVATTVMLERKLPRSL [V5p2n, V5p2 peptide featuring a C611S mutation]
NMR exchange regime of CaM-peptide complex (CaM (calmodulin) [1]): an intermediate exchange regime is retained
aggregation / precipitation [4]: Neither of these two conditions appears to alter the observed behavior

NMR exchange regime of CaM-peptide complex (CaM (calmodulin) [1]): fast exchange on the NMR timescale
shift of emission maximum upon CaM addition (CaM (calmodulin) [2]; excitation 282 nm): blue shift upon addition of calmodulin
Substance: GQTPVKELVSFKWNKYGRPYFS [V5p4, N-terminal peptide 4, residues 310–330 of human TRPV5, C330S]
binding process inferred from curved trajectory of resonances (CaM (calmodulin) [1]; [7]): multiple processes take place during V5p4 binding to CaM
CaM binding affinity (words, from NMR) (CaM (calmodulin) [1]; [7]): relatively weak affinity; also recorded: weak but specific binding to CaM

K1 (CaM (calmodulin) [5]; association constant, one binding site model, N allowed to vary, 50 mM KCl, 10 mM CaCl2, 20 mM Tris pH 7.0, 298 K): 1.3 (±0.3) × 10^7 M^−1
K2 (macroscopic binding constant, second event) (CaM (calmodulin) [5]; [8]): 5.2 (±1.5) × 10^6 M^−1
K1 (macroscopic binding constant, first event) (CaM (calmodulin) [5]; [8]): 2.2 (±1.7) × 10^6 M^−1
ΔS1 (CaM (calmodulin) [5]; one binding site model, N allowed to vary, 298 K): −27.7 cal mol^−1 deg^−1
ΔS1 (CaM (calmodulin) [5]; [9]): −29.6 cal mol^−1 deg^−1
ΔS2 (CaM (calmodulin) [5]; [9]): −33.0 cal mol^−1 deg^−1
emission maximum upon addition of CaM (CaM (calmodulin) [2]; V6p1, W695, CaM titration up to peptide:CaM 1:2, CaM buffer pH 7.0): 324 nm
emission maximum without CaM (start of shift) (CaM (calmodulin) [2]; excitation 282 nm): 358 nm
shift of emission maximum upon CaM addition (CaM (calmodulin) [2]; excitation 282 nm): blue-shift in emission maximum
Substance: GSSANWERLRQGTLRRDLRGIINRGLE [V6p1, TRPV6 C-terminal peptide 1, residues 690–716 of human TRPV6, R690G]
comparison of the affinities of the two binding events (CaM (calmodulin) [5]; K1 versus K2, sequential binding sites model): indistinguishable macroscopic binding constants; also recorded: nearly identical affinities
CaM domains involved in binding (overall) (CaM (calmodulin) [1]): residues from both domains of CaM are involved in the first and the second binding events; also recorded: involves both domains of CaM to a similar extent

NMR exchange regime of CaM-peptide complex (CaM (calmodulin) [1]): fast exchange on the NMR timescale
Substance: VRALLTRRASVSARATGTAFRR [V5p5, N-terminal peptide 5, residues 133–154 of human TRPV5]
CaM binding affinity (words, from NMR) (CaM (calmodulin) [1]; [7]): relatively weak affinity; also recorded: weak but specific binding to CaM
